From patent US20230173029A1, “TREATMENT OF CARDIAC REMODELLING” (UNIVERSITETET I OSLO, priority 2020, published 2023)

Tests used:
Myh7 = Myh7 gene expression in left ventricle tissue by qPCR; assay type: in vivo, rat; conditions: HT Dahl/SS rats
Experimental: (§1) A total of 29 adult Dahl salt-sensitive (Dahl/SS) male rats with an initial weight of 150 to 200 g were included in the study. Rats were purchased from Charles River Laboratories (USA) and housed in a room with a 12/12-hour light cycle, a temperature of 21° C., and a humidity of 55%. Rats were maintained on a normal salt diet up to seven weeks of age. Twenty-two Dahl/SS were then randomly switched to a high salt diet for 6 weeks to induce hypertension, whilst 7 rats were kept normotensive (NT) on normal salt diet. Drinking water and food was provided ad libitum.
After 2 weeks of high salt diet, 15 hypertensive (HT) rats were started on treatment with proANP31-67. Rats treated with proANP31-67 received one of two dosages: 50 ng/kg/day (n=8) or 100 ng/kg/day (n=7). […]
Total RNA was extracted from left ventricle tissue using an RNeasy Fibrous Tissue Mini Kit (Qiagen, Cat. #74704). RNA concentration and quality was assessed by NanoDrop ND-1000 Spectrophotometer (Thermo Fisher Scientific). cDNA synthesis was performed using an iSCRIPT synthesis kit (Bio-Rad). Transcript levels of Mhy7 (Rn00568328_m1) and Rpl32 (Rn00820748_g1) were determined using TaqMan assays (Applied Biosystems) detected on a QuantStudio3 (Thermo Fisher Scientific) and analysed using QuantStudio™ Design (Thermo Fisher Scientific). Mhy7 mRNA levels were calculated by the ΔΔCt method and normalized to Rpl32 transcript value. […]

[1] = test system: Dahl salt-sensitive (Dahl/SS) male rats; assay: Transthoracic echocardiography of cardiac structure and function in hypertensive Dahl/SS rats; assay type: in vivo, rat; conditions: for E/A (ratio E wave to A wave) / EF (ejection fraction) / FS (fractional shortening) / IVS; d (inter-ventricular septum, diastole) / IVS; s (inter-ventricular septum, systole) / LA (left atrium diameter) / LV Mass (left ventricular mass) / LV Vol; d (left ventricular volume, diastole) / LV Vol; s (left ventricular volume, systole) / LVPW; d (left ventricular posterior wall, diastole) / LVPW; s (left ventricular posterior wall, systole) / RWT (relative wall thickness): HT Dahl/SS rats on high salt diet, at 6 weeks, mean ± SEM
Experimental: as §1
After 2 weeks of high salt diet, 15 hypertensive (HT) rats were started on treatment with proANP31-67. Rats treated with proANP31-67 received one of two dosages: 50 ng/kg/day (n=8) or 100 ng/kg/day (n=7). A total of 14 rats received only vehicle: control rats on a normal salt diet (n=7); and HT rats on a high salt diet (n=7). Rats were randomly assigned to the 3 groups (i.e. control normal salt; high salt untreated; high salt plus treatment).
Drug or vehicle was delivered via Alzet osmotic mini-pumps (Model 2004; mean pumping rate […], mean fill volume […]) implanted subcutaneously (as instructed by the manufacturer) for 28 days. Animals were treated with buprenorphine (0.05 mg/kg s.c.) as analgesic 30 minutes before and up to 1 day following implantation of pumps.
Cardiac function was assessed by transthoracic echocardiography using a VEVO 2100 high resolution in vivo imaging system from VisualSonics (Canada). Briefly, animals were maintained under anesthesia (1.5-2% isoflurane mixed with oxygen) on a pre-warmed ECG transducer pad with body temperature and ECG monitored. Measurements were made with an MS250 transducer, frequency set at 24 MHz. M-mode in the parasternal long axis view was performed to assess the function and dimension of the left ventricle and left atrium. LVEF was calculated as 100×((LV Vol;d−LV Vol;s)/LV Vol;d). LV mass was estimated by the formula: 1.053×((LVID;d+LVPW;d+IVS;d)3−LVID;d3). Relative wall thickness (RWT) was calculated as 2×LVPW;d/LVID;d.21 Normal geometry of the heart was defined as the 95th percentile for both LV Mass and RWT of the NT group. E and A waves in left ventricular filling velocities were assessed via pulsed-wave Doppler in a parasternal long axis view. Echocardiographic analysis were performed by an operator blinded to treatment group.
Experiments were performed as described above in Example 1, using a group of 8 Dahl/SS rats which, at 7 weeks of age, were switched to a high salt diet as described above. After 2 weeks of high salt diet, this group was started on proANP31-67 treatment. The rats were administered proANP31-67 at a renal sub-therapeutic dosage of 25 ng/kg/day.

[2] = test system: rat neonatal cardiomyocytes; assay: In vitro [3H]leucine incorporation in ANGII-stimulated neonatal cardiomyocytes; assay type: cell-based; conditions: 24 h
Experimental: Primary cultures of rat cardiomyocyte cells were prepared as previously described (Larsen et al., Cardiovascular Research 80(1): 47-54, 2008). In brief, hearts from 1-3 day old Wistar rats (Taconic), were isolated by […] and pancreatin digestion. Cardiomyocytes were separated from noncardiomyocytes by differential attachment to uncoated culture flasks (90151; Techno Plastic Products). Cardiomyocytes were allowed to attach to 6- or 12-well culture plates (Corning International, Corning, N.Y.) coated with gelatine/fibronectin (G-1890/F1141; Sigma, St. Louis, Mo.) overnight in plating medium (2 or 1 ml) at a density of 2.5×10^5 cells/ml medium [DMEM (41965; GIBCO-BRL, Invitrogen) supplemented with penicillin/streptomycin/glutamine (G6784; Sigma), medium 199 (31150; GIBCO-BRL), HEPES (15630; GIBCO-BRL), horse serum (14-703E; Bio-Whittaker, Lonza), and fetal calf serum (14-701E; Bio-Whittaker)]. […]
5 μCi/ml [3H]leucine (American Radiolabeled Chemicals) were added at the same time as ANG II and the cells were washed six times in 95% EtOH before being harvested in 0.2 M NaOH 24 h after stimulation, as previously described (Halvorsen et al., Journal of Lipid Research 39(4): 901-912, 1998). […] [3H]leucine incorporation was quantified by measuring counts per minute in duplicates from each sample with the Wallac Winspectral 1414 liquid scintillation counter (PerkinElmer). […]

[3] = 50 or 100 ng/kg/day s.c. (pooled) for 28 days

proANP31-67: Human proANP31-67, linear peptide fragment of proANP consisting of SEQ ID NO: 1; also known as vessel dilator, VSDL (EVVPPQVLSEPNEEAGAALSPLPEVPPWTGEVSPAQR; listed as Homo sapiens)
expression of the Myh7 gene associated with adverse cardiac hypertrophy (Myh7; 25 ng/kg/day s.c., FIG. 5F): attenuated | expression of the Myh7 gene associated with adverse cardiac hypertrophy (Myh7; 50 or 100 ng/kg/day s.c. (pooled), FIG. 1F): attenuated | E/A (ratio E wave to A wave) ([1]; 25 ng/kg/day s.c.): 1.47 ± 0.08 | EF (ejection fraction) ([1]; 25 ng/kg/day s.c.): 79.6 ± 1.6% | FS (fractional shortening) ([1]; 25 ng/kg/day s.c.): 49.89 ± 1.7% | IVS; d (inter-ventricular septum, diastole) ([1]; 25 ng/kg/day s.c.): 1.67 ± 0.03 mm | IVS; s (inter-ventricular septum, systole) ([1]; 25 ng/kg/day s.c.): 3.12 ± 0.10 mm | LA (left atrium diameter) ([1]; 25 ng/kg/day s.c.): 4.13 ± 0.17 mm | LV Mass (left ventricular mass) ([1]; 25 ng/kg/day s.c.): 872.5 ± 22.5 mg | LV Vol; d (left ventricular volume, diastole) ([1]; 25 ng/kg/day s.c.): 288.5 ± 15.4 µL | LV Vol; s (left ventricular volume, systole) ([1]; 25 ng/kg/day s.c.): 59.44 ± 6.2 µL | LVPW; d (left ventricular posterior wall, diastole) ([1]; 25 ng/kg/day s.c.): 1.67 ± 0.04 mm | LVPW; s (left ventricular posterior wall, systole) ([1]; 25 ng/kg/day s.c.): 2.81 ± 0.08 mm | RWT (relative wall thickness) ([1]; 25 ng/kg/day s.c.): 0.46 ± 0.02 | E/A (ratio E wave to A wave) [1, 3]: 1.6 ± 0.1 | EF (ejection fraction) [1, 3]: 78.2 ± 1.9% | FS (fractional shortening) [1, 3]: 48.7 ± 1.8% | IVS; d (inter-ventricular septum, diastole) [1, 3]: 1.7 ± 0.0 mm | IVS; s (inter-ventricular septum, systole) [1, 3]: 3.1 ± 0.0 mm | LA (left atrium diameter) [1, 3]: 4.2 ± 0.1 mm | LV Mass (left ventricular mass) [1, 3]: 891.7 ± 12.9 mg | LV Vol; d (left ventricular volume, diastole) [1, 3]: 265.1 ± 12.4 µL | LV Vol; s (left ventricular volume, systole) [1, 3]: 58.0 ± 6.3 µL | LVPW; d (left ventricular posterior wall, diastole) [1, 3]: 1.8 ± 0.0 | LVPW; s (left ventricular posterior wall, systole) [1, 3]: 2.9 ± 0.1 | RWT (relative wall thickness) [1, 3]: 0.52 ± 0.02 | diastolic function as defined by E/A ratio ([1]; HT Dahl/SS rats, 25 ng/kg/day s.c., FIG. 5C): preserved diastolic function | change in LA diameter ([1]; HT Dahl/SS rats, 25 ng/kg/day s.c., FIG. 5D): much smaller change in LA diameter than the untreated HT group | proportion of treated HT rats displaying normal cardiac geometry ([1]; HT Dahl/SS rats, 25 ng/kg/day s.c., FIG. 5E): all | E/A ratio, relative fold change to NT controls ([1]; HT Dahl/SS rats, 50 or 100 ng/kg/day s.c. (pooled), FIG. 1C): preserved | left atrium diameter larger compared to NT rats ([1]; HT Dahl/SS rats, 50 or 100 ng/kg/day s.c. (pooled), FIG. 1D): about 10% | proportion of treated HT rats showing normal geometry (LV mass and RWT) ([1]; HT Dahl/SS rats, 50 or 100 ng/kg/day s.c. (pooled), FIG. 1E): approximately 70% | ANGII-induced hypertrophy as indexed by [3H]-leucine incorporation ([2]; 37.5 ng/ml proANP31-67, 1 μM ANG II): prevented | ANGII-induced hypertrophy as indexed by [3H]-leucine incorporation ([2]; 150 ng/ml proANP31-67, 1 μM ANG II): prevented
